Results: patent US8349804B2, “Bone graft and scaffolding materials immobilized with type I collagen binding peptides” (Seoul National University Industry Foundation, priority 2006, dated 2013)

Experiments:
[1] = Test of calcification (calcein staining, confocal microscopy); format: cell-based, human; conditions: cultured 14 days in medium for forming hard tissue; compared with group without peptides
Method: The bone graft materials prepared in Examples 2 was added to a medium for forming a hard tissue containing calcein (fluorescent marker of calcium), and human mesenchymally derived stem cells (C2Cl2: ATCC CRL-1772) were cultured for 14 days. The cultured osteoblasts werefixed with 2% glutaraldehyde solution and treated with 1% triton X-100 and then added with a fluorescent-labeled phalloidin solution, thus staining the fixed cytoplasm.

[2] = system: ERK; assay: Western blot of phosphorylated ERK (pERK); format: cell-based, human; conditions: C2C12 cells treated with peptides for 30 min; compared with non-treated cells (NT)
Method: In order to examine the expression of differentiation marker protein in osteoblasts cultured on the surface of the bone graft material on which peptides added with cysteine at each N-terminal end of amino acid sequences of SEQ ID NOs: 1, 2 and 3, prepared in example 2 according to the present invention were immobilized, the peptides were exposed to human mesenchymally derived stem cells (C2C12) for 30 min, and collected to measure the amount of ERK protein, a marker proteins involved in intracellular signal transfer, by Western blot.
The human mesenchymally derived stem cells were transplanted to 60 mm of petridish, treated with peptides for 30 min. Whole intracellular protein was extracted and quantitated by Bradford method. 40[…] of protein was electrophoresed on acrylamide gel and transferred to nitrocellulose membrane, and ERK, intracellular signal transmission protein within cell was reacted with the antibody of phosphorylated ERK (pERK), followed by reacting with the second antibody labeled with a marker. The membrane was developed to observe the protein bands and measure densities thereof (FIG. 4).

[3] = system: type I collagen; assay: Affinity of peptide to type I collagen by Biacore X; format: binding; conditions: type I collagen bound to CM5 chip, peptide dissolved to be 4 μmol, ranking among SEQ ID NO: 1-3
Source text: The synthesized peptide's affinity to type I collagen was examined using Biacore X (Biacore Co., Sweden). After the type I collagen was bound to CM5 chip, the amount of peptides binding with collagen was quantitated while flowing the prepared peptide dissolved to be 4 μmol into micro-channels of Biacore X (FIG. 1).

[4] = system: Human-osteocarcoma cells (KCLB No. 21543); assay: Test of cell adhesion on peptide-immobilized bone graft material; format: cell-based; conditions: phalloidin staining, confocal laser scanning microscope
Method: […] The bone graft materials with the cultured human-osteocarcoma cell were fixed with 2% glutaraldehyde solution. The fixed bone graft materials were treated with 1% triton X-100 and then added with a fluorescent-labeled phalloidin solution, thus staining the attached cytoplasm.

type I collagen, sequence (P02452 162-1218 limits assumed): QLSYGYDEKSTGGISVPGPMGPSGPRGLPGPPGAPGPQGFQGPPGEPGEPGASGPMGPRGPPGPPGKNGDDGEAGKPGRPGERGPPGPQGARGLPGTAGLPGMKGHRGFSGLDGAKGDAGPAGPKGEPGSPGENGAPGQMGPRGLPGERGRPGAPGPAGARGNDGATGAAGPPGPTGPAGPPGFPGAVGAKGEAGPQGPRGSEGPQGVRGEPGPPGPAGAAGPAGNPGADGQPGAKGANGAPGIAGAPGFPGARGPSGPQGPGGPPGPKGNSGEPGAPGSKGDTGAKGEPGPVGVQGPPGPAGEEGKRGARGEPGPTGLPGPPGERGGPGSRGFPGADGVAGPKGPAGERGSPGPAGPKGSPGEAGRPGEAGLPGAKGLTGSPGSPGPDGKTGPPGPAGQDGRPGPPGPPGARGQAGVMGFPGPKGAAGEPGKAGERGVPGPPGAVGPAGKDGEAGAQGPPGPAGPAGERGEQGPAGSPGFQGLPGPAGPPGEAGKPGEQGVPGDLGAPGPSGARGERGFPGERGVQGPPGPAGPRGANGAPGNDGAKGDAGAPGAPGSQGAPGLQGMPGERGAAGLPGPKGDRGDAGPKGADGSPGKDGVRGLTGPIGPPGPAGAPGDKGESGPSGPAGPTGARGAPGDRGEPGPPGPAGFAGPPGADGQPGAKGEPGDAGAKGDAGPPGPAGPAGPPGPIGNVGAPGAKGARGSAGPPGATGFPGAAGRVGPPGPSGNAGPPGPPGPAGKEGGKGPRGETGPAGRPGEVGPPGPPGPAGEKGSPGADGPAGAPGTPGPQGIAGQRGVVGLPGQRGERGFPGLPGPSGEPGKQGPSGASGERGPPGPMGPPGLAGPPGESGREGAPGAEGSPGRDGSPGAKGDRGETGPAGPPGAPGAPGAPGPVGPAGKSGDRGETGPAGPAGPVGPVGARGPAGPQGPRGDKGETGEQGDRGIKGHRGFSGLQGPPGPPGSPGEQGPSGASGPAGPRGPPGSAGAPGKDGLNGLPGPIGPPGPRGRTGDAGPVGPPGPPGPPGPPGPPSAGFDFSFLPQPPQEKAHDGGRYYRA
type I collagen, sequence (P08123 80-1119 limits assumed, further chain): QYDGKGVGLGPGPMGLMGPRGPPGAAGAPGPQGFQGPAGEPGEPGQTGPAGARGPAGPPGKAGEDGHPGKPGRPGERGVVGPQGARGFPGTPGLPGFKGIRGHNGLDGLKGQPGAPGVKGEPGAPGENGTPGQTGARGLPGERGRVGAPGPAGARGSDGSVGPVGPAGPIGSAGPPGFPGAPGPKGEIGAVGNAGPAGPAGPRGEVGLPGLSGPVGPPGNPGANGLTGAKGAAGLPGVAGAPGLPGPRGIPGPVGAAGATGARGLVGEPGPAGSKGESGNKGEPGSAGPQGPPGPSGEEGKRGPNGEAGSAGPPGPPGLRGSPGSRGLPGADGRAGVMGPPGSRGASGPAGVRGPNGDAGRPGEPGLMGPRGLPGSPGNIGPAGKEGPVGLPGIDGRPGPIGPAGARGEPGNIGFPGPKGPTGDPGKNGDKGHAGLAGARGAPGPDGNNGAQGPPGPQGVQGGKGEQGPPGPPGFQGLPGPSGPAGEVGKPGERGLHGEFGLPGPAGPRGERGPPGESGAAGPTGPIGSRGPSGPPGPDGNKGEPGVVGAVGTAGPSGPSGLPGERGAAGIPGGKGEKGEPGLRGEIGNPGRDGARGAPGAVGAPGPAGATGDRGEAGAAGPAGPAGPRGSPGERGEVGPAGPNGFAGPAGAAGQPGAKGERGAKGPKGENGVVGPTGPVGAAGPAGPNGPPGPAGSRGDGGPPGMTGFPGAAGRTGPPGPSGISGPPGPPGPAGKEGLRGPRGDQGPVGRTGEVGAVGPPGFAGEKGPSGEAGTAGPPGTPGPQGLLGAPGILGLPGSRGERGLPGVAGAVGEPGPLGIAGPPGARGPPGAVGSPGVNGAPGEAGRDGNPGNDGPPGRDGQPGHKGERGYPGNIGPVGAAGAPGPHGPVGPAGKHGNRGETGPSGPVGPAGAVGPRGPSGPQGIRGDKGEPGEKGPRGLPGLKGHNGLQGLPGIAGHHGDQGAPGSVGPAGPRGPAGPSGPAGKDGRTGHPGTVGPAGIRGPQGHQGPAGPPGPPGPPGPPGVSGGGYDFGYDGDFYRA

In the case of “KMFHVSNAQYPGA (listed as Oryctolagus cuniculus) [SEQ ID NO: 2]”, the “calcium adhesion (calcein fluorescence), calcification of cells” value (from here on “calcium adhesion (calcein fluorescence)”) [1] is reported as “much more fluorescence”, the “expression of phosphorylated ERK (pERK)” value [2] is reported as “significantly increased” and the “affinity to type I collagen (amount of peptide binding with collagen)” value [3] is reported as “lowest affinity”. For the same substance, the “cell adhesion pattern on coated surface” value [4] was “stable adhesion of the cells”.

For “YRLKRSKS (listed as Oryctolagus cuniculus) [SEQ ID NO: 1]”, the “calcium adhesion (calcein fluorescence)” value [1] was “much more fluorescence”, the “expression of phosphorylated ERK (pERK)” value [2] was “significantly increased” and the “cell adhesion pattern on coated surface” value [4] was “stable adhesion of the cells”.

With “Bovine serum albumin [BSA, reference compound]” the “cell adhesion pattern on coated surface” value [4] was “spherical and unstable adhesion aspect of the cells”.

With “YRLKRSKSKMFHVSNAQYPGA (listed as Oryctolagus cuniculus) [SEQ ID NO: 3]” the “calcium adhesion (calcein fluorescence)” value [1] was “much more fluorescence”, the “expression of phosphorylated ERK (pERK)” value [2] was “significantly increased” and the “affinity to type I collagen (amount of peptide binding with collagen)” value [3] was “highest affinity”. For the same substance, the “cell adhesion pattern on coated surface” value [4] was “stable adhesion of the cells”.
